Measured values taken from PMC10669433 (Antibiotics, 2023).
“Also recorded” adds a separate entry of the source.

What was measured:
[1] = tested on: cardiovascular prosthetic infections (PVE, CEDI, PVGI); assay: Clinical cure in patients with cardiovascular prosthetic infections treated with dalbavancin as sequential therapy (retrospective case series); assay type: in vivo, human
Description: Data were collected from May 2019 to May 2023 at the Modena University Hospital, a tertiary care hospital in Northern Italy. Cardiovascular infections included PVE, CEDI, and PVGI.
(§1) Clinical evaluation was carried out at the end of treatment (EOT) and at the end of a six-month follow-up. Primary outcome was clinical cure, defined as resolution of all clinical signs and symptoms of infection, with or without radiological improvement. […] Finally, for primary outcome, a comparison between patients treated with standard (the 1500 mg infusion regimen at day 1 and day 8, with subsequent 1000 mg administrations every 2 weeks) vs. TDM-guided approach was performed.

[2] = tested on: cardiovascular prosthetic infections (PVE, CEDI, PVGI); assay: Microbiological cure / relapse (blood cultures) in the case series; assay type: in vivo, human
Description: as §1

[3] = Adverse events in the case series; assay type: in vivo, human
[4] = tested on: cardiovascular prosthetic infections (PVE, CEDI, PVGI); assay: 18F-FDG PET/TC radiological improvement; assay type: in vivo, human; settings: 18F-FDG PET/TC available for nine patients; 6/9
Source text: For diagnosis, all patients underwent clinical, microbiological, and echocardiographic evaluation (transthoracic echocardiography and transesophageal echocardiography [TEE]). Major echocardiographic criteria included vegetation, abscess, pseudoaneurysm, intracardiac fistula, valvular perforation or aneurysm, and new partial dehiscence of prosthetic valve. In addition, according to clinical indication, computed tomography (CT) angiography or cardiac one and/or 18F-fluorodeoxyglucose (FDG)-positron emission tomography (PET) PET were also performed.
Data collection included demographic information, Charlson Comorbidity Index (CCI), type and site of infection, microbiological isolation, prior antibiotic treatment, surgical procedure (performed or not, complete or partial), laboratory variables, and when available, radiological improvement (fluorodeoxyglucose positron emission tomography (FDG-PET) alone or in combination with computed tomographic angiography (CTA) to assess optimal duration of antibiotic treatment at follow-up).

[5] = cited from earlier work
Source text: It is associated with good tissue penetration, including staphylococcal biofilms, making this antibiotic a promising agent to treat biofilm-mediated infections.

[6] = tested on: vancomycin-resistant S. aureus (VRSA); settings: cited from earlier work
Source text: (§2) Dalbavancin is a long-acting parenteral lipoglycopeptide, a semisynthetic derivative of teicoplanin. It is characterized by a large spectrum of action against Gram-positive bacteria, such as Staphylococcus aureus (including methicillin-resistant S. aureus, but also strains with intermediate sensitivity to vancomycin), Streptococcus agalactiae, Streptococcus pyogenes, Streptococcus anginosus, vancomycin-sensitive Enterococcus faecium, and Enterococcus faecalis; it is poorly active against vancomycin-resistant S. aureus (VRSA), and it is not active against vancomycin-resistant enterococci with t ...

[7] = tested on: vancomycin-resistant enterococci with the Van A phenotype; settings: cited from earlier work
Source text: as §2

infective endocarditis [8] = settings: review, sequential dalbavancin in infective endocarditis, 170 patients; cited from earlier work
infective endocarditis [9] = tested on: infective endocarditis; design: method as in PMID 37442488, PMID 30389305; settings: 124 subjects with infective endocarditis; cited from earlier work
S. aureus = settings: dalbavancin group vs 22% in the SOC group, p = 0.484; cited from earlier work
Source text: Unfortunately, all patients received dalbavancin as sequential therapy, with a medi ...

SMILES: CN[C@H]1C(=O)N[C@@H]2Cc3ccc(cc3)Oc3cc4cc(c3O[C@@H]3O[C@H](C(=O)O)[C@@H](O)[C@H](O)[C@H]3NC(=O)CCCCCCCCC(C)C)Oc3ccc(cc3Cl)[C@@H](O)[C@@H]3NC(=O)[C@H](NC(=O)[C@@H]4NC(=O)[C@@H](NC2=O)c2cc(cc(O)c2Cl)Oc2cc1ccc2O)c1ccc(O)c(c1)-c1c(O[C@H]2O[C@H](CO)[C@@H](O)[C@H](O)[C@@H]2O)cc(O)cc1[C@@H](C(=O)NCCCN(C)C)NC3=O [dalbavancin]
- Clinical cure according to causative pathogen: E. faecalis ([1]; 1/1 patient): 100%
- Clinical cure according to causative pathogen: G. morbillorum ([1]; 1/1 patient): 100%
- Clinical cure according to causative pathogen: CoNS ([1]; 2/2 patients): 100%
- Clinical cure according to causative pathogen: viridans Streptococcus ([1]; 3/3 patients): 100%
- Clinical cure according to causative pathogen: S. aureus ([1]; 3/5 patients): 60%
- Clinical success in patients treated without TDM ([1]; 3/5 patients): 60%
- Clinical cure, suppressive antibiotic therapy without complete source control ([1]; 6/9 patients): 66.6%
- Clinical cure at the EOT, cardiac implantable electronic devices infections (n = 3), % ([1]; CEDI, end of treatment): (66.6) %
- Clinical cure at the EOT, cardiac implantable electronic devices infections (n = 3), patients/evaluable ([1]; CEDI, end of treatment): 2/3
- Clinical cure at the EOT, prosthetic valve endocarditis (n = 8), % ([1]; PVE, end of treatment): (75) %
- Clinical cure at the EOT, prosthetic valve endocarditis (n = 8), patients/evaluable ([1]; PVE, end of treatment): 6/8
- Clinical cure at the EOT, prosthetic vascular grafts infections (n = 6), % ([1]; PVGI, end of treatment): (83.3) %
- Clinical cure at the EOT, prosthetic vascular grafts infections (n = 6), patients/evaluable ([1]; PVGI, end of treatment): 5/6
- Clinical cure at the EOT (n = 13), % ([1]; end of treatment, 10/13 patients): (76.9) %
- Clinical cure at the EOT (n = 13), patients cured/evaluable ([1]; end of treatment, dalbavancin 1500 mg day 1 and day 8, then further doses (fixed or TDM-guided), after first-line antibiotics): 10/13
- Clinical cure, patients who underwent the complete source control intervention ([1]; implant removal, 4/4 patients): 100%
- Clinical cure in TDM-guided group (n = 8), patients cured/evaluable ([1]; patients with TDM-guided redosing): 7/8
- Clinical Success End of Treatment ([1]; single patients): Yes (7 w); also recorded: Yes (25 w); also recorded: Yes (18 w); also recorded: Yes (29 w); also recorded: Yes (14 w); also recorded: Yes (47 w); also recorded: Yes (9 w); also recorded: No (16 w); also recorded: Yes (10 w); also recorded: Yes (20 w); also recorded: No (53 w); also recorded: No (12 w)
- Clinical Success Six Months Follow-Up ([1]; single patients, one table row per patient): Yes and No
- Clinical cure at six months of follow-up (n = 12), % ([1]; six-month follow-up): (75) %
- Clinical cure at six months of follow-up (n = 12), patients cured/evaluable ([1]; six-month follow-up): 9/12
- Microbiological relapse after treatment interruption (n = 13), patients/evaluable ([2]; after dalbavancin interruption): 1/13
- Microbiological cure at the EOT (n = 13), patients/evaluable ([2]; end of treatment, sustained negativity of blood cultures): 10/13
- Tolerability ([3]; 14 patients, long-term therapy): well tolerated
- Adverse effect reactions: impaired renal function, % ([3]; of N = 14 patients): (7.1) %
- Adverse effect reactions: rash, % ([3]; of N = 14 patients): (7.1) %
- Radiological improvement with a marked SUV reduction [4]: 66.6%
- elimination half-life [5]: 14 days
- total protein binding [5]: 93%
- clearance route ([5]; no active metabolites): predominantly renal
- activity against vancomycin-resistant S. aureus (VRSA) [6]: poorly active
- activity against vancomycin-resistant enterococci with the Van A phenotype [7]: not active
- overall clinical efficacy (infective endocarditis [8]): around 90%
- clinical success rate at 12 months of follow-up (infective endocarditis [9]): 95.2%
- treatment-related readmission rates within 30 days (S. aureus): 15%
